# Patent US10087165B2, “Fluoroquinolones and use thereof to treat bacterial infections” (UNIVERSITÉ PIERRE ET MARIE CURIE—PARIS 6 (UPMC), priority 2014, dated 2018)
# Like-named read-outs stand apart in the source and are kept apart here.
# What was measured:
# [1] = assay type: physicochemical
# Method: A solubility assay was performed on both Quin 18 and Quin 19 in appropriated vehicles for per os injection into mice to obtain a fine suspension at maximal concentration (MC) of each compound. The solubility of each compound in each vehicle was evaluated by observation of potential precipitate.
# [2] = biological target: M. tuberculosis DNA gyrase (Mycobacterium tuberculosis, UniProt P9WG45+P9WG47); assay: biochemical
# M. tuberculosis DNA gyrase, sequence (P9WG47 whole entry): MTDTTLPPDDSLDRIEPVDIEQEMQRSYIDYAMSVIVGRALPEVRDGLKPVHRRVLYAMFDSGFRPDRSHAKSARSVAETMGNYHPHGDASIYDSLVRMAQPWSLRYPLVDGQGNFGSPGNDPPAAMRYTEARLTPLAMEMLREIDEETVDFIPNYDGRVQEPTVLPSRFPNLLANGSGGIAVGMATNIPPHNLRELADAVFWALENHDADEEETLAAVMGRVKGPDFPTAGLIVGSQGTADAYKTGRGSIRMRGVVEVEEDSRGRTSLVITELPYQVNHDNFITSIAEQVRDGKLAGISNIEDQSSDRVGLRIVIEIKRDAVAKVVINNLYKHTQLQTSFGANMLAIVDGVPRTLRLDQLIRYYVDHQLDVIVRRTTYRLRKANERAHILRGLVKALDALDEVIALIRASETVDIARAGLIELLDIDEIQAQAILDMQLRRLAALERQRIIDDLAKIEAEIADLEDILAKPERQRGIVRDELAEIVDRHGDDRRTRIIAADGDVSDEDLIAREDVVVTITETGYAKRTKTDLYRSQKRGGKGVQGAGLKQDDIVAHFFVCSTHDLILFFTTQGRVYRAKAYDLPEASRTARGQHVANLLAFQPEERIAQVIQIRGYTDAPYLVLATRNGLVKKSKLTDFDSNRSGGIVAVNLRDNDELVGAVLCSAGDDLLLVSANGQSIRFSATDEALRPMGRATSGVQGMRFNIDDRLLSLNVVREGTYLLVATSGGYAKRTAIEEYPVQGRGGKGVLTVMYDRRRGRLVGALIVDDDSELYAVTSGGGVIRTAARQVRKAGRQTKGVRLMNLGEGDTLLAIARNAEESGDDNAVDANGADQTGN
# M. tuberculosis DNA gyrase, sequence (P9WG45 whole entry): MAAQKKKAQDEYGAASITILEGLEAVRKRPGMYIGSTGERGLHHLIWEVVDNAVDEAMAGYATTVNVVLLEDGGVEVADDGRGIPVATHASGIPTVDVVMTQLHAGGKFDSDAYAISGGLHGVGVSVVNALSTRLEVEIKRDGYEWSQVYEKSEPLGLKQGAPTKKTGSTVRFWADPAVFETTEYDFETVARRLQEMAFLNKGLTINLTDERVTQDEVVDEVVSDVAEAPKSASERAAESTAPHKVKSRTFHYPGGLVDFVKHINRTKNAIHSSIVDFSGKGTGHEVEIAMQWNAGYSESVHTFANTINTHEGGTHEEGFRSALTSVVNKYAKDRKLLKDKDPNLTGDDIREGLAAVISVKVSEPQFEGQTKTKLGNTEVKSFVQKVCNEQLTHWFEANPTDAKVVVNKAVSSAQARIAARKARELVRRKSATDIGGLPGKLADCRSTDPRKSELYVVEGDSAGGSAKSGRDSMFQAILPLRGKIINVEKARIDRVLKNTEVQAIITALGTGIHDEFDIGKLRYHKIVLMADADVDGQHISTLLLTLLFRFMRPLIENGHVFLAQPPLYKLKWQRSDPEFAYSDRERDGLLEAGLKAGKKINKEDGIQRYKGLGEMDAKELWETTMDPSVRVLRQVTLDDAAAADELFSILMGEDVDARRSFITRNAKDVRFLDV
# [3] = Acute toxicity in healthy female CD-1 mice after a single oral treatment; assay type: in vivo
# Method: The aim of this study was to evaluate the acute toxicity of two new compounds (Quin 18 and Quin 19) in healthy female CD-1 after a single oral treatment at D0.
# Toxicity of treatment was evaluated by monitoring of animals (general signs of pharmacologic and toxicity effects, morbidity, mortality and evident signs of toxicity, as well as twice-weekly monitoring for clinical signs and body weight) until the end of the experiment (D14). At the end of the experiment, animals were sacrificed and macroscopic autopsy was performed.
# Mice of each group were administered by per os (PO) injection at 10 ml/kg according to the standard operating procedure No. TEC-078. The recommended volume for per os (PO) administration in mice is 10 ml/kg.
# Morbidity, mortality and evident signs of toxicity of mice were considered daily from D0 until the end of the experiment (D14 or D15).
# Monitoring of mice for detailed behavioral and clinical observations was performed twice a week from D0 until the end of the experiment (D14 or D15) according to the standard operating procedures No. TEC-192.
# Body weight of mice was monitored at D1, D2 and then twice a week until the end of the experiment (D14 or D15) according to the standard operating procedures No. TEC-108. Weight loss was assessed against the starting weight of each mouse at D0.
# During the course of the experiment, animals were sacrificed if any of the following occurs: • Signs of suffering (cachexia, weakening, difficulty to move or to eat), • Compound toxicity (hunching, convulsions), • 25% body weight loss on any day. Sacrifice of Animals
# At D14 or D15, animals were be sacrificed by CO2 inhalation and a macroscopic autopsy was performed.
# M. tuberculosis H37Rv = assay: microbe, parasite or virus in culture; assay type: cell-based; conditions: for MIC: Mycobacterium tuberculosis
# [4] = tested on: M. tuberculosis H37Rv strain; assay: Minimal effective dosage in the murine TB model; assay type: in vivo, Balb/C/J female mice; set-up: Mice weight: unit not given here; conditions: for Mice weight / Spleen weight / Survival: No. death: Gavage; for Survival: No. death: 10 mice
# Method: Four-week-old Balb/C/J female mice were infected intravenously with 10^6 CFU of M. tuberculosis H37Rv strain. On the day following the infection (D1), 10 mice were sacrificed to determine the exact baseline values of spleen weight and CFU counts in the lungs. The remaining mice were allocated to the following treatment groups: an untreated negative control group for survival monitoring, a positive control group treated for 1 month with isoniazid (INH) 25 mg/kg/d, […] test groups were treated with Quin18 and Quin19 at increasing dosages (25 mg/kg/d; 50 mg/kg/d; 100 mg/kg/d; 150 mg/kg/d) given by oral gavage, and two additional test groups were treated intravenously with Quin18 25 mg/kg/d and 100 mg/kg/d. All the groups contained 10 mice and were treated from D1 to D28, 5 days a week. The parameters used for assessing the severity of infection and the effectiveness of treatments were survival rate, spleen weight, gross lung lesions and CFU counts in the lungs.
# The minimal effective dosage was defined as the minimal dosage able to prevent mortality of the mice, spleen enlargement and the occurrence of gross lung lesions. CFU counts were considered to be a more precise way of determining the dose-ranging efficacy of Quin18 and Quin19.
# Survival rates between groups were plotted on a Kaplan-Meier curve and compared using the log-rank test.
compound,measurement,setting,value
"CCCCCCCCCCN1CCN(c2c(F)cc3c(=O)c(C(=O)O)cn(C4CC4)c3c2OC)CC1 [Quin 19, 1-cyclopropyl-7-(4-decylpiperazin-1-yl)-6-fluoro-8-methoxy-4-oxo-1,4-dihydroquinoline-3-carboxylic acid]",Excipient allowing the best solubilisation,[1],corn oil
same,IC50,[2],150 µM
same,Loss of body weight (in words),[3]; Group B1: 100 mg/kg PO Q1Dx1,did not exhibited any loss of body weight
same,Tolerance (in words),"[3]; Group B1: 100 mg/kg PO Q1Dx1, corn oil, with sonication",well tolerated
same,Mean body weight (MBW),"[3]; Group B1: 100 mg/kg PO Q1Dx1, with sonication, D1",29.73 ± 0.83 g
same,Mean body weight (MBW),"[3]; Group B1: 100 mg/kg PO Q1Dx1, with sonication, D2",29.9 ± 0.2 g
same,Mean body weight (MBW),"[3]; Group B1: 100 mg/kg PO Q1Dx1, with sonication, D3",30.23 ± 0.4 g
same,Mean body weight (MBW),"[3]; Group B1: 100 mg/kg PO Q1Dx1, with sonication, D4",30.5 ± 0.98 g
same,Mean body weight (MBW),"[3]; Group B1: 100 mg/kg PO Q1Dx1, with sonication, D7",31.2 ± 0.1 g
same,Mean body weight (MBW),"[3]; Group B1: 100 mg/kg PO Q1Dx1, with sonication, D11",32.17 ± 1.36 g
same,Mean body weight (MBW),"[3]; Group B1: 100 mg/kg PO Q1Dx1, with sonication, D14",31.4 ± 0.44 g
same,Macroscopic autopsy: Observations,"[3]; Group B1: 100 mg/kg PO Q1Dx1, *one mouse had air bubble in the caecum",NTR*
same,Mean body weight (MBW),"[3]; Group B1: corn oil, 10 mg/ml with sonication, 100 mg/kg PO Q1Dx1, D0, 100 mg/kg",31.67 ± 2.25 g
same,Loss of body weight (in words),[3]; Group B2: 200 mg/kg PO Q1Dx1,did not exhibited any loss of body weight
same,Tolerance (in words),"[3]; Group B2: 200 mg/kg PO Q1Dx1, corn oil, with sonication",well tolerated
same,Mean body weight (MBW),"[3]; Group B2: 200 mg/kg PO Q1Dx1, with sonication, D1",30.97 ± 0.4 g
same,Mean body weight (MBW),"[3]; Group B2: 200 mg/kg PO Q1Dx1, with sonication, D2",30.93 ± 0.25 g
same,Mean body weight (MBW),"[3]; Group B2: 200 mg/kg PO Q1Dx1, with sonication, D3",30.3 ± 0.85 g
same,Mean body weight (MBW),"[3]; Group B2: 200 mg/kg PO Q1Dx1, with sonication, D7",31.6 ± 1.97 g
same,Mean body weight (MBW),"[3]; Group B2: 200 mg/kg PO Q1Dx1, with sonication, D10",32.1 ± 3.2 g
same,Mean body weight (MBW),"[3]; Group B2: 200 mg/kg PO Q1Dx1, with sonication, D14",31.9 ± 1.15 g
same,Macroscopic autopsy: Observations,"[3]; Group B2: 200 mg/kg PO Q1Dx1, sacrifice at end of study",NTR
same,Mean body weight (MBW),"[3]; Group B2: corn oil, 20 mg/ml with sonication, 200 mg/kg PO Q1Dx1, D0, 200 mg/kg",30.67 ± 0.21 g
same,Loss of body weight (in words),[3]; Group B3: 200 mg/kg PO Q1Dx1,did not exhibited any loss of body weight
same,Tolerance (in words),"[3]; Group B3: 200 mg/kg PO Q1Dx1, corn oil, without sonication",well tolerated
same,Mean body weight (MBW),"[3]; Group B3: 200 mg/kg PO Q1Dx1, without sonication, D1",32.73 ± 1.46 g
same,Mean body weight (MBW),"[3]; Group B3: 200 mg/kg PO Q1Dx1, without sonication, D2",32.5 ± 0.62 g
same,Mean body weight (MBW),"[3]; Group B3: 200 mg/kg PO Q1Dx1, without sonication, D4",31.73 ± 0.9 g
same,Mean body weight (MBW),"[3]; Group B3: 200 mg/kg PO Q1Dx1, without sonication, D7",32.2 ± 0.5 g
same,Mean body weight (MBW),"[3]; Group B3: 200 mg/kg PO Q1Dx1, without sonication, D11",34.1 ± 1.51 g
same,Mean body weight (MBW),"[3]; Group B3: 200 mg/kg PO Q1Dx1, without sonication, D15",35.43 ± 1.99 g
same,Macroscopic autopsy: Observations,"[3]; Group B3: 200 mg/kg PO Q1Dx1, sacrifice at end of study",NTR
same,Mean body weight (MBW),"[3]; Group B3: corn oil, 20 mg/ml without sonication, 200 mg/kg PO Q1Dx1, D0, 200 mg/kg",33.6 ± 2.11 g
same,Loss of body weight (in words),[3]; Group B4: 400 mg/kg PO 2Q1Dx1,did not exhibited any loss of body weight
same,Tolerance (in words),"[3]; Group B4: 400 mg/kg PO 2Q1Dx1, corn oil, without sonication",well tolerated
same,Mean body weight (MBW),"[3]; Group B4: 400 mg/kg PO 2Q1Dx1, without sonication, D1",30.47 ± 2.2 g
same,Mean body weight (MBW),"[3]; Group B4: 400 mg/kg PO 2Q1Dx1, without sonication, D2",30.47 ± 1.3 g
same,Mean body weight (MBW),"[3]; Group B4: 400 mg/kg PO 2Q1Dx1, without sonication, D5",31.03 ± 1.55 g
same,Mean body weight (MBW),"[3]; Group B4: 400 mg/kg PO 2Q1Dx1, without sonication, D9",31.77 ± 2.32 g
same,Mean body weight (MBW),"[3]; Group B4: 400 mg/kg PO 2Q1Dx1, without sonication, D13",31.7 ± 1.18 g
same,Mean body weight (MBW),"[3]; Group B4: 400 mg/kg PO 2Q1Dx1, without sonication, D14",32.53 ± 1 g
same,Macroscopic autopsy: Observations,"[3]; Group B4: 400 mg/kg PO 2Q1Dx1, sacrifice at end of study",NTR
same,Mean body weight (MBW),"[3]; Group B4: corn oil, 20 mg/ml without sonication, 400 mg/kg PO 2Q1Dx1 (2 hours between the 2 injections), D0, 400 mg/kg",31.03 ± 1.86 g
same,"Autopsy, macroscopic observations (in words)",[3]; all treated groups,No particular sign was observed
same,Dose up to which well tolerated (maximal solubility),"[3]; in corn oil, PO, female mice",up to 400 mg/kg
same,Signs of toxicity at the dose levels tested (in words),[3]; mice,no signs of toxicity
same,antibacterial activity against wild-type M. tuberculosis strain (in words),M. tuberculosis H37Rv; H37Rv,high antibacterial activity
same,MIC,"M. tuberculosis H37Rv; H37RV, Table 3, read-out: MIC M. tuberculosis H37Rv",< 0.12 µM
same,MIC,"M. tuberculosis H37Rv; H37Rv, Table 2, read-out: MIC (M. tuberculosis) WT",0.25 µM
same,Mice weight,[4]; 25 mg/kg/j,19.3 ± 2.6
same,Spleen weight,[4]; 25 mg/kg/j,332 ± 141.1 mg
same,Survival: No. death,"[4]; 25 mg/kg/j, D1 to D28, 5 days a week",1
same,Mice weight,[4]; 50 mg/kg/j,18 ± 3.4
same,Spleen weight,[4]; 50 mg/kg/j,305.6 ± 181.5 mg
same,Survival: No. death,[4]; 50 mg/kg/j,2
same,Mice weight,[4]; 100 mg/kg/j,20.2 ± 1.3
same,Spleen weight,[4]; 100 mg/kg/j,253 ± 127.2 mg
same,Survival: No. death,[4]; 100 mg/kg/j,0
same,Mice weight,[4]; 150 mg/kg/j,20.7 ± 0.8
same,Spleen weight,[4]; 150 mg/kg/j,222 ± 106.2 mg
same,Survival: No. death,[4]; 150 mg/kg/j,0
same,Efficacy in a mouse model of tuberculosis (in words),[4]; given orally,outstanding efficacy
same,Survival compared with untreated group (in words),"[4]; whatever the dosage (25, 50, 100 and 150 mg/kg/d) and the administration route",statistically superior to untreated group
